Results reported in patent publication US20050170020A1, “Using organic and / or inorganic potassium and its salts to treat autoimmune and other health disorders and methods of administering the same” (priority 2003, published 2005).

Test system: psoriasis affected scalp area
Test: Phenylephrine applied on psoriasis affected scalp area
Assay type: in vivo, human
Conditions: topical, inventor
Source text: From above it is clear that by reducing the body water loss i.e. by vasoconstriction we can control the psoriasis. To check this theory inventor has applied Phenylephrine which is used for nasal decongestant, on psoriasis affected scalp area. Phenylephrine is an Adrenergic Agent that mimics the sympathetic neurotransmitter norepinephrine (NE). […] This worked by way of reducing water loss of psoriatic skin by vasoconstriction.

SMILES: CNC[C@H](O)c1cccc(O)c1 [Phenylephrine]
- Response of psoriatic skin: lesions reduced
